Test results published in patent US20200079757A1, “COMPOUNDS FOR THE TREATMENT OF RESPIRATORY DISEASES” (THE UNIVERSITY OF MELBOURNE, priority 2017, published 2020).

Assays:
[1] = test system: TNF-stimulated BEAS-2B cells; assay: TNF-α-induced IL-8 and CSF-2 (GM-CSF) mRNA and supernatant protein in BEAS-2B cells (RT-qPCR, ELISA); type: cell-based; settings: 1-10 μM 30 min prior to TNF-α 10 ng/ml 24 h, maximal at lowest concentration
Method: The primary assay for the activity of the novel CK1δ/ε inhibitors is the modulation of gene expression in the airway epithelial cell line, the BEAS-2B cells. The assay is conducted under several conditions. Generally, TGF-β or TNF-α is used to elicit fibrogenic or inflammatory genes, respectively. The agents are added at a concentration of 10 μM, or at the indicated concentrations for a period of 30 min prior to the addition of TGF-β/TNF-α which are incubated for a further 20 hours before the addition, in some experiments of the glucocorticoid, dexamethasone (Dex, 30 nM) for the final 4 hours of the experiment, prior to harvest of cellular RNA to measure by RT-qPCR the levels of mRNA of marker genes for inflammation and fibrogenesis. The inhaled corticosteroid (ICS), budesonide is also used in some experiments. Furthermore, the supernatants are harvested at the end of the incubation periods in selected experiments to measure the levels of CSF-2 or IL-8 by ELISA as described in (Tran et al. (2005) British Journal of Pharmacology, 145, 123-131). […] The threshold cycle (CT) values determined for target genes were normalized against those obtained for 18S ribosomal RNA (18S rRNA), which was included as internal control. […] RNA was extracted and measured by RT-qPCR. Pro-inflammatory cytokines in the supernatants were measured by ELISA. […]

[2] = test system: Bleomycin Model of Pulmonary Fibrosis; assay: Bleomycin model of pulmonary fibrosis: BAL protein, BAL cells, lung gene expression; type: in vivo, mouse; settings: female C57BI/6 mice; for bleomycin-induced BAL cell number / bleomycin-induced BAL protein: day −1 to 3
Method: All animal experiments were carried out in accordance with ethical guidelines from the University of Melbourne Animal Ethics Committee (AEEC #1513736.1). Six- to 8-week old 20-25 g C57BI/6 mice (ARC, Perth, Australia) received treatment with 35 μL of saline or bleomycin (105 mU per mouse) on day 0 through intranasal administration, as previously described (Langenbach et al., (2007). Can J Physiol Pharmacol, 85, 727-738). Acute and chronic bleomycin mouse models were used to assess the effect of SS9-010 on pulmonary fibrosis in vivo. SS9-010 was administered systemically through intraperitoneal injection or locally to the lungs through inhalation of an aerosol generated using an oxygen concentrator connected to a hudson nebuliser operating at 5 L/min for 15 minutes. […] Mice were allowed food and water ad libitum for the duration of all studies. At the end of each study, bronchoalveolar lavage (BAL) was performed from which leukocyte cell types were enumerated and acelluar protein content was determined as previously described (Langenbach, et al., 2007), lungs were dissected and snap frozen. Gene expression were determined from pulverised frozen lung tissue. Total protein content in acellular BAL fluid was assessed using the BioRad protein assay method. BAL cells in BAL fluid were stained with Erythrosin B (EB) and counted manually with the aid of a hemocytometer. Total BAL cell number was calculated by accounting for the return volume of BAL fluid. The effects of inhaled SS9-010 on bleomycin-induced BAL protein leakage, BAL cell recruitment, lung weight, as well as lung fibrogenic gene expression in mouse lungs are shown in FIG. 9. Female C57BI/6 mice received a transnasal dose of bleomycin or saline on day 0. SS9-010 was administered day −1 to day 3 by daily inhalation of aerosol generated by nebulizing from a concentration of 1 mg/mL for a period of 15 min once daily. Bronchoalveolar lavage (BAL) protein and BAL cell number were assessed. Lung fibrogenic gene expression was also assessed on day 3. Data are presented as mean±SEM (n=6). […] The effects of intraperitoneal injection of SS9-010 on bleomycin-induced BAL protein leakage, BAL cell recruitment, and lung fibrogenic gene expression in mouse lungs are shown in FIG. 10. Female C57BI/6 mice were […] administered bleomycin or saline on day 0. SS9-010 (3 or 10 mg/kg/day, ip) was administered from day −1 to 3. […] Lung fibrogenic gene expression was also assessed on day 3. Data are presented as mean±SEM (n=4 sal, n=5 other groups). Systemic SS9-010 (3 or 10 mg/kg/day, ip) had no effect on BAL protein or BAL cell number. Induction of IL-6 was reduced by SS9-010 treatment, whereas arginase-1 was not.

[3] = test system: ovalbumin (OVA)-sensitized BALB/c mice; assay: Airway hyper-responsiveness to methacholine in acute ovalbumin-induced asthma model; type: in vivo, mouse; settings: inhaled, estimated deposited dose 1 μg, day 21 to 28
[4] = inhaled aerosol 1 mg/mL 15 min once daily

Row | SMILES | TNF-α-induced IL-8 expression and immunoreactive IL-8 in supernatant [1] | induction of IL-6 (lung gene expression) ([2]; 3 or 10 mg/kg/day ip, day 3) | bleomycin-induced BAL cell number ([2]; 3 or 10 mg/kg/day ip) | bleomycin-induced BAL protein ([2]; 3 or 10 mg/kg/day ip) | bleomycin-induced BAL cell number [2, 4] | bleomycin-induced BAL protein [2, 4] | lung fibrogenic gene expression ([2]; inhaled aerosol 1 mg/mL 15 min once daily, day −1 to 3, assessed day 3) | OVA-induced increase in central airway resistance (Rn) to methacholine [3] | OVA-induced increase in elastance to methacholine [3] | compliance changes, OVA/SS9-010 compared to OVA alone [3]
1 | Cl.Nc1nccc(-c2c(-c3ccc(F)cc3)ncn2C2CCCCC2)n1 [PF670462, 4-(1-Cyclohexyl-4-(4-fluorophenyl)-1H-imidazol-5-yl)pyrimidin-2-amine hydrochloride, reference compound] | active inhibitors | – | – | – | – | – | – | – | – | –
2 | CNc1nccc(-c2c(-c3ccc(F)cc3)ncn2C2CCCCC2)n1 [SS9-010, 4-(1-Cyclohexyl-4-(4-fluorophenyl)-1H-imidazol-5-yl)-N-methylpyrimidin-2-amine] | active inhibitors | reduced | no effect | no effect | modest suppression | showed an effect | showed an effect | attenuated | attenuated | No significant difference
